Reference: patent US11976083B2, “Inhibitors of peptidylarginine deiminases” (Gilead Sciences, Inc., priority 2020, dated 2024)

Each compound was assayed against T1, human PAD4 (Homo sapiens, UniProt Q9UM07) (assay: In vitro PAD4 BAEE biochemical assay). Settings: BAEE substrate 3 mM, 5 nM PAD4, 2 mM calcium chloride; geometric mean of multiple experiments.
T1 construct: human PAD4 (NM_012387), A2-P663, was PCR amplified; His-SUMO (N, cleaved yes); made in house; host or cells: E. coli BL21(DE3)
Summary of the method: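 Assay was run at 25 °C using 3 mM BAEE and 5 nM human PAD4 after a 30 min compound preincubation; ammonia produced over 2 h was quantified by OPA-derived fluorescence. Full inhibition was defined by 50 µM BB-Cl-Amidine, and IC50 came from variable-slope nonlinear regression.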

T1 sequence (Q9UM07 2-663): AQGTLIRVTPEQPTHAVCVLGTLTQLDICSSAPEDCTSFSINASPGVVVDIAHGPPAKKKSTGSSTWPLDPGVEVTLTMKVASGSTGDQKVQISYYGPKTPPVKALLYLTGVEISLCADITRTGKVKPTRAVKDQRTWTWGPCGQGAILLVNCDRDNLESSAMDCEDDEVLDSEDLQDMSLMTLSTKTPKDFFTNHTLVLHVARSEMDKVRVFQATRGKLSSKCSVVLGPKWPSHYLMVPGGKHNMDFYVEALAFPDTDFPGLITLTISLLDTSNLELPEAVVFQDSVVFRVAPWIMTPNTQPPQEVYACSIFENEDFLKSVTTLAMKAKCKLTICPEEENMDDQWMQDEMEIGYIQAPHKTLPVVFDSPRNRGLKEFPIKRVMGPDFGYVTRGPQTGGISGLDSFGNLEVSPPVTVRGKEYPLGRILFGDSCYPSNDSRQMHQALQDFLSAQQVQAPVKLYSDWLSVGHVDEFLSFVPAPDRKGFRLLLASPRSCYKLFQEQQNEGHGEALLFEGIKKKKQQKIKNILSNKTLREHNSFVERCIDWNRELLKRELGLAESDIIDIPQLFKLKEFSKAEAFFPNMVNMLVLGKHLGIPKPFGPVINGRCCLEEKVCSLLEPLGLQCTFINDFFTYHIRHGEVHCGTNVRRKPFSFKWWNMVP

Q: With C[C@H]1NC(=O)C(C)(C)CCCCCCn2c(-c3nc4cc(C(=O)N[C@H]5CNCC[C@@H]5F)c(F)cc4n3C(F)F)cc3ccc1nc32 [Example 626, 1-(difluoromethyl)-6-fluoro-˜{N}-[(3˜{S},4˜{S})-4-fluoro-3-piperidyl]-2-[(11˜{R})-8,8,11-trimethyl-9-oxo-1,10,19-triazatricyclo[10.5.2.0^{15,18}]nonadeca-12(19),13,15(18),16-tetraen-17-yl]benzimidazole-5-carboxamide] as the compound, how does the IC50 read?
A: Its IC50 is 48 nM.

Q: How did the IC50 turn out when COc1cc(C(=O)N2CCC[C@@H](N)C2)cc2nc(-c3cc4ccc5nc4n3CCCCCc3nccnc3C(=O)N[C@@H]5C)n(C)c12 [Example 627, (2~{R})-17-[5-[(3~{R})-3-aminopiperidine-1-carbonyl]-7-methoxy-1-methyl-benzimidazol-2-yl]-2-methyl-3,6,9,16,22-pentazatetracyclo [14.5.2.0^{5,10}.0^{19,23}] tricosa-1(22),5(10), 6,8,17,19(23),20-heptaen-4-one] was run?
A: Its IC50 is 49 nM.

Q: Which IC50 does the source give for COc1cc(C(=O)N2CC[C@@H](OC)[C@@H](N)C2)cc2nc(-c3cc4ccc5nc4n3CCCCCC[C@@H](OC)C(=O)N[C@@H]5C)n(C)c12 [Example 628, (8~{R},11~{R})-17-[5-[(3~ {S},4~{R})-3-amino-4-methoxy-piperidine-1-carbonyl]-7-methoxy-1-methyl-benzimidazol-2-yl]-8-methoxy-11-methyl-1,10,19-triazatricyclo [10.5.2.0^{15,18}] nonadeca-12(19),13,15(18),16-tetraen-9-one] here?
A: The IC50 was 83 nM.

Q: How did the IC50 turn out when COc1cc(C(=O)N2CC[C@@H](OC(F)F)[C@@H](N)C2)cc2nc(-c3cc4ccc5nc4n3CCCCCC[C@@H](OC)C(=O)N[C@@H]5C)n(C)c12 [Example 629, (8~{R},11~{R})-17-[5-[(3~ {S},4~{R})-3-amino-4-(difluoromethoxy)piperidine-1-carbonyl]-7-methoxy-1-methyl-benzimidazol-2-yl]-8-methoxy-11-methyl-1,10,19-triazatricyclo [10.5.2.0^{15,18}]nonadeca-12(19),13,15(18),16-tetraen-9-one] was run?
A: Its IC50 is 108 nM.

Q: For COc1ccnc2c1C(=O)N[C@H](C)c1ccc3cc(-c4nc5cc(C(=O)N6CC[C@@H](OC)[C@@H](N)C6)cc(OC)c5n4C)n(c3n1)CCCCC2 [Example 630, (2~{R})-17-[5-[(3~{S),4~ {R})-3-amino-4-methoxy-piperidine-1-carbonyl]-7-methoxy-1-methyl-benzimidazol-2-yl]-6-methoxy-2-methyl-3,9,16,22-tetrazatetracyclo[14.5.2.0^ {5,10}.0^{19,23}] tricosa-1(22),5(10), 6,8,17,19(23),20-heptaen-4-one], which IC50 is on record?
A: The IC50 was 122 nM.

Q: COc1cc(C(=O)N2C[C@H](N)C[C@H](C(F)F)C2)cc2nc(-c3cc4ccc5nc4n3CCCCC[C@@H]3C[C@H]3C(=O)N[C@@H]5C)n(C)c12 [Example 631, (2~{R},5~{R},7~{R})-14-[5-[(3~{R},5~{S})-3-amino-5-(difluoromethyl)piperidine-1-carbonyl]-7-methoxy-1-methyl-benzimidazol-2-yl]-2-methyl-3,13,19-triazatetracyclo[11.5.2.0^ {5,7}.0^{16,20}]icosa-1(19),14,16(20),17-tetraen-4-one] was tested. Which IC50 did it give?
A: The IC50 was 211 nM.

Q: Which IC50 does the source give for COc1cc(C(=O)N2CC3(CCCCNC3)C2)cc2nc(-c3cc4ccc5nc4n3CC(F)(F)CCC[C@@H]3C[C@H]3C(=O)N[C@@H]5C)n(C)c12 [Example 632, (2~{R},5~{R},7~{R})-14-[5-(2,9-diazaspiro[3.6]decane-2-carbonyl)-7-methoxy-1-methyl-benzimidazol-2-yl]-11,11-difluoro-2-methyl-3,13,19-triazatetracyclo [11.5.2.0^{5,7}.0^{16,20}] icosa-1(19),14,16(20), 17-tetraen-4-one] here?
A: The IC50 was 46 nM.

Q: For COc1cc(C(=O)N[C@H]2CNC[C@@H](C(F)F)C2)cc2nc(-c3cc4ccc5nc4n3CC(F)(F)CCC[C@@H]3C[C@H]3C(=O)N[C@@H]5C)n(C)c12 [Example 633, 2-[(2~{R},5~{R},7~{R})-11,11-difluoro-2-methyl-4-oxo-3,13,19-triazatetracyclo[11.5.2.0^ {5,7}.0^{16,20}]icosa-1(19),14,16(20), 17-tetraen-14-yl]- ~{N}-[(3~{R},5~{S})-5-(difluoromethyl)-3-piperidyl]-7-methoxy-1-methyl-benzimidazole-5-carboxamide], which IC50 is on record?
A: The IC50 was 57 nM.

Q: COc1cc(C(=O)N2CC[C@@H](OC)[C@@H](N)C2)cc2nc(-c3cc4ccc5nc4n3CCCCC[C@@H]3C[C@@]3(C(F)(F)F)C(=O)N[C@@H]5C)n(C)c12 [Example 634, (2~{R},5~{S},7~{R})-14-[5-[(3~{S},4~{R})-3-amino-4-methoxy-piperidine-1-carbonyl]-7-methoxy-1-methyl-benzimidazol-2-yl]-2-methyl-5-(trifluoromethyl)-3,13,19-triazatetracyclo[11.5.2.0^ {5,7}.0^{16,20}] icosa-1(19),14,16(20), 17-tetraen-4-one] was tested. Which IC50 did it give?
A: Its IC50 is 251 nM.

Q: With COc1cc(C(=O)N2CC[C@@H](OC)[C@@H](N)C2)cc2nc(-c3cc4ccc5nc4n3CCC/C=C/[C@@H]3C[C@@]3(C(F)(F)F)C(=O)N[C@@H]5C)n(C)c12 [Example 635, (2~{R},5~{S},7~{S},8~{E})-14-[5-[(3~{S},4~{R})-3-amino-4-methoxy-piperidine-1-carbonyl]-7-methoxy-1-methyl-benzimidazol-2-yl]-2-methyl-5-(trifluoromethyl)-3,13,19-triazatetracyclo[11.5.2.0^ {5,7}.0^{16,20}] icosa-1(19),8,14,16(20), 17-pentaen-4-one] as the compound, how does the IC50 read?
A: Its IC50 is 682 nM.

Q: COc1cc(C(=O)N2CC[C@@H](OC)[C@@H](N)C2)cc2nc(-c3cc4ccc5nc4n3CCCCC[C@H]3C[C@]3(C(F)(F)F)C(=O)N[C@@H]5C)n(C)c12 [Example 636, (2~{R},5~{R},7~{S})-14-[5-[(3~{S},4~{R})-3-amino-4-methoxy-piperidine-1-carbonyl]-7-methoxy-1-methyl-benzimidazol-2-yl]-2-methyl-5-(trifluoromethyl)-3,13,19-triazatetracyclo [11.5.2.0^{5,7}.0^ {16,20}]icosa-1(19), 14,16(20),17-tetraen-4-one] was tested. Which IC50 did it give?
A: The IC50 was 52 nM.

Q: With [2H]C([2H])([2H])O[C@@H]1CCN(C(=O)c2cc(OC)c3c(c2)nc(-c2cc4ccc5nc4n2CC(F)(F)CCC[C@@H]2C[C@H]2C(=O)N[C@@H]5C)n3C)C[C@@H]1N [Example 637, (2~{R},5~{R},7~{R})-14-[5-[(3~{S},4~{R})-3-amino-4-(trideuteriomethoxy)piperidine-1-carbonyl]-7-methoxy-1-methyl-benzimidazol-2-yl]-11,11-difluoro-2-methyl-3,13,19-triazatetracyclo[11.5.2.0^ {5,7}.0^{16,20}] icosa-1(19),14,16(20), 17-tetraen-4-one] as the compound, how does the IC50 read?
A: The IC50 was 31 nM.

Q: With C[C@@H]1[C@H](N)CCCN1C(=O)c1cc(F)c2c(c1)nc(-c1cc3ccc4nc3n1CC(F)(F)CCC[C@@H]1C[C@H]1C(=O)N[C@@H]4C)n2C1CC1 [Example 639, (2~{R},5~{R},7~{R})-14-[5-[(2~{R},3~{R})-3-amino-2-methyl-piperidine-1-carbonyl]-1-cyclopropyl-7-fluoro-benzimidazol-2-yl]-11,11-difluoro-2-methyl-3,13,19-triazatetracyclo[11.5.2.0^ {5,7}.0^{16,20}]icosa-1(19),14,16(20),17-tetraen-4-one] as the compound, how does the IC50 read?
A: Its IC50 is 15 nM.
